In patent publication US9877946B2, “Method for treating, managing, inhibiting, or preventing obesity” (RESEARCH & BUSINESS FOUNDATION SUNGKYUNKWAN UNIVERSITY, priority 2014, dated 2018):
One block for each molecule: values may come before it.

Columns and labels:
[1] = tested on: HFD obesity-induced C57BL6/J mice; assay: HFD obesity-induced mice, comparison with resveratrol-treated group; assay type: in vivo; settings: for body weight compared to the control: 28-week-old mice
Protocol: To confirm an anti-obesity effect of butein, obesity was induced to C57BL6/J mice by HFD, and changes in body weight according to butein treatment were confirmed. Specifically, 7-week-old mice were adjusted for 1 week, and fed with HFD (60% fat, purchased from Research Diet) for 12 weeks to induce obesity. Afterward, 30 mg/kg of butein was treated daily into 8 of the obesity-induced mice for 8 weeks. As controls, a PBS-treated group (7 mice) and a group (8 mice) treated with resveratrol, which is known to have an effect on preventing obesity, were used. After the 8-week treatment, increases in body weight were compared, and 8 weeks later, a GTT and a ITT were performed in combination with a hematological analysis.

[2] = tested on: HFD obesity-induced C57BL6/J mice; assay: HFD obesity-induced mice, comparison with PBS-treated group; assay type: in vivo
Protocol: To confirm an anti-obesity effect of butein, obesity was induced in C57BL6/J mice by HFD, and the mice were treated with butein through abdominal injection. 7-week-old mice were adjusted for 1 week, fed with HFD (60% fat, purchased from Research Diet) for 8 weeks to induce obesity, and butein was treated daily at 5 mg/kg and 15 mg/kg into two groups of mice, each group having 7 mice. As controls, a normal diet food intake group (5 mice) and a group fed with HFD and treated with PBS (7 mice) were used. Increases in body weight during the treatment period and weights of various organs were compared, and after 8 weeks, a glucose tolerance test (GTT) and an insulin tolerance test (ITT) were performed in combination with histological and hematological analyses.

[3] = tested on: T37i cells (brown fat precursor cells); assay: Brown adipocyte marker expression in differentiated T37i cells, real-time PCR; assay type: cell-based; settings: butein 5, 10 and 20 μM, 6 days, FIG. 2
Protocol: To confirm an increase in number of brown adipocytes by butein treatment, brown fat precursor cells, T37i cells, were used. The T37i cells were cultured in a medium containing 5 μg/ml insulin and 1 nM triiodothyronine (T3) for 2 days, and then the differentiation into adipocytes using a medium containing 5 μg/ml insulin was induced for 6 to 8 days. The differentiation-induced adipocytes were treated with butein for 6 days by concentrations (5, 10 and 20 μM) and stained with Oil Red O, and then mRNA expression levels of PPARγ and aP2 related to the adipocyte differentiation and brown adipocyte markers, that is, UCP-1, PRDM16 and Cidea genes, were confirmed through real-time PCR.

[4] = tested on: UCP-1 expression in C3H10T1/2 cells; assay: UCP-1 expression in differentiated C3H10T1/2 adipocytes, real-time PCR; assay type: cell-based, mouse
Protocol: Differentiated C3H10T1/2 adipocytes were treated with the butein and the derivatives for 24 hours, and the expression levels of UCP-1 and PRDM4 were investigated using real-time PCR.

[5] = tested on: UCP-1 expression in MEF cells; assay: UCP-1 expression in MEF cells; assay type: cell-based, mouse; settings: DMSO-treated control, FIG. 4
Description: An increase in expression level of UCP-1 by butein treatment in C3H10T1/2 cells was compared to those by treatment of sulfuretin, fisetin, resveratrol and genistein, which are known as materials having an influence on adipocytes, and the increase in expression level of UCP-1 by butein treatment in MEF cells was compared to a DMSO-treated group as a control.

[6] = tested on: PRDM4 expression in C3H10T1/2 cells; assay: PRDM4 expression in differentiated C3H10T1/2 adipocytes, real-time PCR; assay type: cell-based, mouse; settings: 24 hours, FIG. 25
Protocol: To confirm an anti-obesity effect of the butein derivative, changes in expression levels of UCP-1 and PRDM4 by treatment of the butein derivative (Formulas 1-1 to 1-8 and 1-10 to 1-14) were measured. Differentiated C3H10T1/2 adipocytes were treated with the butein and the derivatives for 24 hours, and the expression levels of UCP-1 and PRDM4 were investigated using real-time PCR.

[7] = tested on: epididymal fat, subcutaneous fat and brown fat; assay: Marker expression in adipose tissues of mice treated for 14 days, real-time PCR; assay type: in vivo; settings: 5 mg/kg abdominal injection, FIGS. 6 to 8
Protocol: To examine activities of butein to increase the numbers of beige and brown adipocytes and inhibit white adipocytes in vivo, expression of markers in adipose tissues were measured after mice were treated with butein for 14 days. 6 mice were treated with 5 mg/kg of the butein through abdominal injection, and as a control, 6 mice were treated with only a solvent through abdominal injection. After 14 days, expression levels of markers for white fat and beige (brown) fat in epididymal fat, subcutaneous fat and brown fat were confirmed through real-time PCR.

[8] = tested on: PRDM4 gene; assay: Microarray for gene inducing bioactivity of butein; assay type: cell-based
[9] = HFD 8 weeks, butein 5 and 15 mg/kg daily, vs HFD control
[10] = differentiated C3H10T1/2 adipocytes, 24 hours, FIG. 25

food intake ([1]; between three groups, FIG. 20C): no differences
SMILES: O=C(/C=C/c1ccc(O)c(O)c1)c1ccc(O)cc1O [Compound 1-1, butein]
effect of decreasing body weight compared to the resveratrol-treated group ([1]; 30 mg/kg daily for 8 weeks after 12 weeks HFD): considerably excellent effect of decreasing a body weight
decrease in body weight compared to the PBS-treated group ([1]; 30 mg/kg daily for 8 weeks after 12 weeks HFD, FIG. 20): approximately 10%
body weight compared to the control [1]: considerable decrease
glucose-insulin metabolism (GTT and ITT) ([1]; HFD-But group, FIG. 21): considerably improved
rectal temperature ([1]; HFD-But group, FIG. 21): increased
UCP-1, PRDM16, Cox8b, PGC-1α, CIDEA, COX7a and Dio2 specifically expressed in beige adipocytes ([2]; 15 mg/kg of butein, 8 weeks): increased
glucose-insulin metabolism (GTT and ITT) ([2]; 15 mg/kg of butein, 8 weeks): significantly improved
body weight [2, 9]: tendency to concentration-dependent decreases
weights of adipose tissues of livers and internal organs [2, 9]: tendency to concentration-dependent decreases
hematological analysis: glucose, cholesterol, neutral fat, HDL, LDL and a fatty acid ([2]; high dosage of butein): significant differences
expression of Cidea [3]: increased
expression of PRDM16 [3]: increased
expression of UCP-1 [3]: increased
expression of UCP-1 compared to sulfuretin, fisetin, resveratrol and genistein ([4]; C3H10T1/2 cells, FIG. 3): increased more than three times
expression of UCP-1 ([4]; butein 5, 10 and 20 μM, 24 hours, FIG. 1): the expression of UCP-1 increased
expression level of UCP-1 [4, 10]: significant increases
expression level of UCP-1 ([4]; differentiated C3H10T1/2 cells, 24 hours, FIG. 5): specifically and considerably increased
expression of UCP-1 compared to the control [5]: more than 10 times
expression level of PRDM4 [6]: significant increases
adipocyte markers PPARγ and aP2 [7]: decreases
brown adipocyte markers UCP-1, PRDM16 Cox8b and Cidea [7]: increases
white adipocyte markers resistin and Nnmt [7]: decreases
PRDM4 gene expression [8]: increased in expression by more than approximately twice

SMILES: COc1cc(C2CC(=O)c3ccc(O)cc3O2)ccc1F (stereo not drawn) [Compound 1-11, 2-(4-fluoro-3-methoxyphenyl)-7-hydroxychroman-4-one]
expression level of UCP-1 compared to the butein-treated group (BFI) [4, 10]: considerably increased
expression level of PRDM4 compared to the butein-treated group (BFI) [6]: considerably increased

SMILES: O=C(/C=C/c1ccc(O)c(O)c1)c1ccc(O)cc1 [Compound 1-12, (E)-3-(3,4-dihydroxyphenyl)-1-(4-hydroxyphenyl)prop-2-en-1-one]
expression level of UCP-1 compared to the butein-treated group (BFI) [4, 10]: considerably increased
expression level of PRDM4 compared to the butein-treated group (BFI) [6]: considerably increased

food intake ([1]; mouse, in vivo): no differences
SMILES: Oc1ccc(C=Cc2cc(O)cc(O)c2)cc1 [resveratrol, reference compound]
body weight compared to the control [1]: no changes
